Experiment [1] deals with Hepa1-BPRc1 cells (defective arnt protein). As to the kind of experiment: TCDD-inducible luciferase activity, transient transfection with pGudLuc1.1. The format is cell-based, mouse. The procedure: (§1) In general, the expression vectors pGudLuc1.0 and pGudLuc1.1 were prepared as follows. A 1330-bp HindIII fragment or an 1810-bp HindIII fragment isolated from the plasmid, pMpap1.0 or pMpap1.1, respectively (see, El-Fouly et al., supra), was subcloned into the HindIII site immediately upstream of the luciferase gene in the plasmid pGL2-basic (purchased from Promega).
(§2) More specifically, the following cells were obtained from the source indicated. Wild-type and AhR-defective (BPRc1 and TAO, respectively) mouse hepatoma (Hepa1c1c7) cells (Hepa1), derived from a C57B1 mouse liver tumor, were obtained from J. P. Whitlock, Jr. (Stanford University). These cells were grown as previously described by Miller et al. in "Biochemical and Genetic Analysis of Variant Mouse Hepatoma Cells Defective in the Induction of Benzo(a)pyrene Metabolizing Enzyme Activity", J. Biol. Chem., Vol. 258, pp. 3523-3527 (1983). Additionally, mouse hepatoma (MLE/BV) cells, derived from a spontaneously immortalized C3H/HeN mouse liver cell, were obtained from B. V. Madhukar (Indiana University School of Medicine, Indianapolis, Ind.) and were grown as described for the Hepa1 cells. Rat hepatoma (H4IIe) cells, guinea pig intestinal adenocarcinoma (GPC16) cells, hamster lung (AHL) cells, human hepatoma (HepG2) cells, human breast tumor (MCF7) cells, and human intestinal epithelial (LS180) cells were obtained from the American Type Culture Collection (Rockville, Md.). Until transfection, all of the cells were maintained according to their respective cell-type-specific culture protocols.
(§3) Transfection was accomplished as follows. Using polybrene as previously described by Helferich et al. in "Photooxidized Products of Tryptophan Can Act as Dioxin Agonists", Mol. Pharmacol., Vol. 40, pp. 674-678 (1991), plates of cells (approximately 80% confluent) were transiently transfected with the desired plasmid (15 μg). Then, the transfected cells were allowed to grow for 48 hours, followed by the addition of either DMSO (1 μl/ml) or TCDD (1 nM) solubilized in DMSO, which was followed by incubation for 24 hours. Next, the plates were transferred onto ice, and the media were removed, after which the plates were rinsed twice with cold PBS. Then, 200 μl of luciferase lysis buffer (purchased from Promega) was used to lyse the cells. The lysed cell samples were collected and transferred into a microfuge tube. Cell debris was pelleted by centrifugation, and the supernatants were collected. The supernatant samples were assayed for TCDD-inducible luciferase activity in the following manner.
(§4) Using the stabilized luciferase assay system (purchased from Promega), luciferase activity in an aliquot of the cleared lysed cell supernatant (20 μl) was determined by mixing it with 100 µl of luciferase assay reagent (purchased from Promega) and measuring the resulting luminescence in a Turner Luminometer or Dynatech ML3000 microplate luminometer (light output was integrated over 1 minute after a delay time of 30 seconds).
(§5) Using a microplate adaptation of the method reported by Bradford in "A Rapid Sensitive Method for the Quantitation of Microgram Quantities of Protein Utilizing the Principle of Protein-Dye Binding", Anal. Biochem., […], pp. 248-254 (1976), luciferase activity was standardized to the protein concentration of the supernatant (with bovine serum albumin as the protein standard). Because of instrument differences in luminescence measurement and data output, luciferase activity was determined as relative light units (RLU) per microgram of protein, which was converted to milligram of protein as reported in the Tables below.

The test system of experiment [2] is Hepa1-TAO cells (reduced levels of AhR). The description is as above. It counts as cell-based, mouse. The procedure:
as §1, §2, §3, §4, §5

Another experiment has as its system MLE-BV cells. Described as above. It counts as cell-based, mouse. The procedure:
as §1, §2, §3, §4, §5

For another experiment, the system named is H1L1.1 cells. As to the kind of experiment: Time course of luciferase induction by TCDD (FIG. 2). Particulars: 1 nM TCDD in DMSO. The format is cell-based, mouse. The procedure: Specifically, with respect to the graph of FIG. 2, the time course of luciferase induction by TCDD was examined in order to determine the optimal time period for measurement of luciferase activity in the H1L1.1 cells. In these experiments, the cells were treated with 1 nM of TCDD solubilized in DMSO or with only DMSO. The luciferase activity was determined as described above at various times up to 32 hours post exposure. Values represent the mean ± the standard evaluation of at least triplicate determinations.

The subject of a further experiment is mouse H1L1.1 cells. In words: Luciferase induction by TCDD in DMSO or serum, 96-well, 4 h; detection limits (FIG. 8). The format is cell-based. The procedure:
Specifically, since it is desired to utilize the present bioassay system directly to detect PAHs in samples without the need for solvent extraction and concentration, the dose-dependence of luciferase induction in cells incubated with increasing concentrations of TCDD in serum versus that observed with increasing concentrations of TCDD in DMSO was examined. In other words, the present bioassay system should be advantageously employed directly with a sample of serum from an animal or human, where the sample may contain TCDD or other PAHs and the serum is the solvent, whereby solvent extraction of the sample with DMSO as the solvent is unnecessary.
The cells were incubated with the respective increasing concentrations of TCDD for 4 hours and luciferase activity of cell lysates determined as follows. […]
After incubation for an additional 15 minutes, luciferase activity in the lysed cells was determined. Luciferase activity was sensitively measured using its bioluminescent substrate, luciferin in a Dynatech ML3000 microplate luminometer. In these experiments, cells either kept intact or lysed using luciferase lysis buffer (purchased from Promega) and luciferase activity in an aliquot of the lysate was determined by automatic injection of assay reagent and measurement of the resulting bioluminescence.

[3] abbreviates: Mus musculus, Luc1.1, TCDD 1 nM vs DMSO.

A word on the fold induction: it is the signal under treatment as a multiple of the control signal. Read a low fold induction as a weak induction. As to `Clc1cc2c(cc1Cl)Oc1cc(Cl)c(Cl)cc1O2` [TCDD, 2,3,7,8-tetrachlorodibenzo-para-dioxin], the “Luciferase activity, TCDD in DMSO” value in experiment [1] (Luc1.1, TCDD 1 nM, 24 h) is listed as 0.8 RLU/mg protein; in experiment [2] (Luc1.1, TCDD 1 nM, 24 h), 1.8 RLU/mg protein; with MLE-BV cells (Luc1.1, TCDD 1 nM, 24 h) it was 13.2 RLU/mg protein. In addition, the fold induction came out at 1.6 in experiment [1] (setting [3]), 4.5 in experiment [2] (setting [3]) and 66 in the experiment with MLE-BV cells (setting [3]). Besides, the “Induction of luciferase activity” value in experiment [1] (pGudLuc1.1, TCDD 1 nM) is on record as “failure of TCDD treatment to induce luciferase activity”. Further, in experiment [2] (pGudLuc1.1, TCDD 1 nM), the “Inducibility of luciferase activity” value is listed as “reduced inducibility”. For the same compound, in the experiment with H1L1.1 cells, the “Time at which TCDD-inducible luciferase activity was detectable” value is 2 h. For the same compound, in the experiment on H1L1.1 cells, the “Time by which luciferase activity decreased to a stable activity” value is not above 12 h. Further, the “Time of peak TCDD-inducible luciferase activity” value in the experiment with H1L1.1 cells is listed as “about 4 hours”. In addition, the “Relative potency (ED50) for luciferase induction, TCDD-serum versus TCDD-DMSO” value in the experiment on mouse H1L1.1 cells is listed as “significantly lower for the TCDD-serum sample than for the TCDD-DMSO sample”. Further, the “Induction of luciferase by TCDD-containing serum” value with mouse H1L1.1 cells (TCDD in serum) is reported as “dose-dependent manner”.

The values are drawn from patent US5854010A, “Bioassay for detecting 2,3,7,8-tetrachlorodibenzo-para-dioxin and TCDD-like compounds and novel recombinant cell line useful therefor” (priority 1997, dated 1998).
